Each block holds one compound with its values, some of them ahead of it.
Experiments:
[1] = biological target: T1, soluble HLA-DR1 (DRA1*0101, DRB1*0101) (Homo sapiens, UniProt P01903+P01911, A100R/D57E/F55L/F60I/F76Y/I96L/L162R/M171V/P40L/Q125E/R42F/V115G/Y59C); experiment: Loading of empty soluble HLA-DR1 with biotinylated HA306-318 peptide, sandwich ELISA; type: biochemical
T1 construct: shortened α- and […]-chains without the cytoplasmatic and transmembrane portion of the MHC molecule; made in house; host or cells: S2 insect cells
Experimental: In order to monitor catalysis of the loading of HLA-DR molecules by compounds of formulae I, IA, II, III and IV1 to IV3, empty, soluble DR molecules were incubated with biotinylated, high-affinity peptide, and these were then detected in a sandwich ELISA for the MHC complexes.
All the batches were then adjusted to a final volume of 10 μl with 2% BSA-PO4^3− buffer (in the case of HLA-DR1 only with PO4^3− buffer). The reaction was started by incubation at 37° C. in a thermocycler. After 40 minutes, the incubation was terminated and the loading reaction was stopped by storage on ice and addition of 50 μl of ice-cold 1% BSA-PBS.
The detection of bound peptide was carried out by means of a sandwich ELISA. […] Between these steps, the plate was washed twice with PBS-0.05% Tween with the aid of a PW plate-washing device (Tecan Industries) and, before filling with fresh solution, all remaining liquid residues were removed by tapping on Scott®Natura paper towels (Hakle-Kimberly Deutschland GmbH). After blocking of non-specific binding sites, the plate was washed three times and filled with 50 μl/well of 1% BSA-PBS. 2×25 μl per reaction batch were transferred to the plate as double values and were carefully mixed thereon (total volume per well: 75 μl). From each filled series, a further 25 μl/well were then again titrated on the plate in a series of two-stage dilutions (final volume per well: 50 μl). The plates so filled were then stored for 2 hours at 4° C. under stationary conditions. Each plate was then washed six times as described above and filled with 80 μl/well of Eu^3+-streptavidin staining solution (europium-streptavidin stock solution diluted 1:10,000 with 1% BSA-PBS) and incubated for 30 minutes at room temperature (RT). After washing for a further eight times, 100 μl/well of fluorescence-activated solution (enhancer) were then added and the signal was measured by means of a Victor^2-multilabelcounter (Wallac Oy) at an excitation wavelength of 340 nm and an emission wavelength of 615 nm in time-resolving mode.
The following experiment was therefore carried out. One catalyst in a fixed concentration of 0.05 mM was introduced into each of a number of batches for loading HLA-DR1 with HA-biot. The same concentration of a second catalyst was then added to each batch. As controls, 1×1% DMSO was added and, as negative control, a reaction mixture was prepared with 2×1% DMSO. The reaction mixtures were then incubated for 40 minutes as already described and the load was measured in a sandwich ELISA.
The resulting load was then determined in an ELISA using biotinylated peptide (see FIG. 1).
The amount of peptide/MHC complexes formed within this time was then determined by means of an ELISA assay (capture antibody: anti-HLA-DR; detection: fluorescent-labelled streptavidin). The activities of the individual compounds were grouped on the basis of the dose/activity curves obtained thereby.

[2] = biological target: T2, HLA-DR1 (DRB1*0101) (Homo sapiens, UniProt P01903+P01911, A100R/D57E/F55L/F60I/F76Y/I96L/L162R/M171V/P40L/Q125E/R42F/V115G/Y59C); experiment: HLA-DR1-restricted T-cell response after catalysed loading of 721.221 cells (EvHA/X5, hCII19.3 T-cells); type: cell-based; details: for catalytic activity on HLA-DR1, dose-activity curves of T-cell stimulation: HA306-318 on 721.221 cells, EvHA/X5 T-cells
T2 construct: HLA-DR-expressing 721.221 cells; endogenous in cells; host or cells: 721.221 cells
From the text: In the present comparison test, the enhancement of the T-cell response by catalysis of the loading of HLA-expressing cells was investigated. […] Either HA306-318 (see also FIG. 3, left-hand panel) or CO260-273 (see also FIG. 3, right-hand panel) was used as peptide antigen. After the loading, the cells were washed and used to stimulate EvHA/X5 and hCII19.3 cells, respectively.
In order to investigate the catalysis of a HLA-DR1 (DRB1*0101)-restricted T-cell response by various catalytically active adamantyl compounds, dose-activity curves of the catalysis of a HLA-DR1 (DRB1*0101)-restricted T-cell response were prepared. The experiment was carried out analogously to Comparison Experiment 3.3, the peptide antigen HA306-318 being loaded onto 721.221 cells in order thereby to stimulate EvHA/X5 T-cells. […] Because the position of the dose-activity curves is evidently also determined by the side chain, a modulating activity can be attributed thereto.

[3] = biological target: T3, HLA-DR1 (DRB1*0101) on L57.23 cells (Homo sapiens, UniProt P01903+P01911, A100R/D57E/F55L/F60I/F76Y/I96L/L162R/M171V/P40L/Q125E/R42F/V115G/Y59C); experiment: Loading of HLA-DR1 on the cell surface of fibroblast cells with biotinylated peptide, flow cytometry; type: cell-based; details: 4 hours, 37° C., active at markedly less than a tenth of the pCP concentration
T3 construct: expressed in transfected cells; host or cells: L57.23 fibroblast cells
Experimental: (§1) The catalytic properties of found substances on the loading of MHC class II molecules located on cells was determined in cell loading experiments. To this end, from 50,000 to 100,000 cells in 50 μl of DMEM were mixed with 50 μl of 24 μM HA-biot. dissolved in DMEM and 50 μl of catalyst solution (different concentrations dissolved in DMEM with a maximum DMSO content of 3%) and incubated for 4 hours at 37° C. and 10% CO2. As controls, only 50 μl of peptide solution and 50 μl of DMEM were added to cells in several batches. At the end of the incubation time, the cells were centrifuged off for 5 minutes at 1300 rpm, and supernatant medium was removed. […] After removal of the supernatant, the cell pellets were again detached and taken up in 50 μl/well of streptavidin-phycoerythrin solution (SA-PE stock solution (1 mg/ml) diluted 1:200 with 2% FCS-PBS). Staining was carried out for 30 minutes at 4° C. with the exclusion of light, in order to avoid excessive decomposition of the fluorescent dyes. […] The cells were then analysed using a continuous-flow cytometer. […]

[4] = biological target: T4, HLA-DR4 (DRB1*0401) on L243.6 cells (Homo sapiens, UniProt P01903+P01911, A100K/A169T/F76Y/I96L/K127E/L162R/M171V/N62H/P40V/Q125Y/R42H/S133A/S149N/S66Y/V115G/V209L/W38E); experiment: Loading of HLA-DR4 on the cell surface of fibroblast cells with biotinylated peptide, flow cytometry; type: cell-based; details: 4 hours, 37° C., active at markedly less than a tenth of the pCP concentration
T4 construct: expressed in transfected cells; host or cells: L243.6 fibroblast cells
Experimental: as §1

[5] = biological target: T5, empty, soluble HLA-DR1 complexes (Homo sapiens, UniProt P01903+P01911, A100R/D57E/F55L/F60I/F76Y/I96L/L162R/M171V/P40L/Q125E/R42F/V115G/Y59C); experiment: High-throughput HLA-DR1 loading test of the substance library and validation of hits; type: biochemical; details: final concentration of 0.4 mM
T5 construct: shortened α- and […]-chains without the cytoplasmatic and transmembrane portion of the MHC molecule; made in house; host or cells: S2 insect cells
Experimental: The compounds of formulae I, IA, II, III and IV1 to IV3 to be tested were supplied in 384-well plates in the form of a 160 mM starting library, dissolved in DMSO, from which an aliquot library had to be prepared. By manually removing 2 μl/well and diluting with 38 μl/well of DMSO, a 8 mM stock library was prepared, which was used for all further tests. In order to analyse the compounds of formulae I, IA, II, III and IV1 to IV3 that were present for their effect on MHC class II molecules, a high-throughput method based on a HLA-DR1 loading test was used. To this end, two 384-well Nunc-Maxisorp plates (ELISA plates) per library plate were coated overnight at 4° C. with 60 μl/well of monoclonal anti-HLA-DR antibody (L243 stock solution (1 mg/ml) diluted 1:500 in 100 mM NaHCO3). The plates were then washed three times by immersion in PBS-0.05% Tween solution and removal of air bubbles by tapping the plate against the wall of the washing vessel. Remaining washing solution was removed by beating the plates on paper towels, and 80 μl/well of 2% BSA-PBS were introduced. Non-specific binding was to be prevented by incubation at 37° C. for at least one hour. […] Excess staining solution was then removed by washing eight times with PBS-0.05% Tween, and 80 μl/well of fluorescence-activated solution (enhancer) were added manually by means of a pipette. […]

[6] = biological target: T6, soluble HLA-DR1 (DRB1*0101) (Homo sapiens, UniProt P01903+P01911, A100R/D57E/F55L/F60I/F76Y/I96L/L162R/M171V/P40L/Q125E/R42F/V115G/Y59C); experiment: MHC loading assay for identifying immunotoxic compounds (4 hours, ELISA); type: biochemical; details: biotinylated HA306-318
T6 construct: shortened α- and […]-chains without the cytoplasmatic and transmembrane portion of the MHC molecule; made in house; host or cells: S2 insect cells

[7] = system: MHC class II; details: prior-art small molecules with H-donor properties; cited from earlier work
[8] = system: L57.23 cells
Experimental: In order to determine the toxicity of the found substances, from 50,000 to 100,000 cells (L57.23) in 100 μl of DMEM were mixed with 50 μl of the catalysts in the indicated concentrations (dissolved in DMEM at a maximum concentration of 3% DMSO) and incubated for four hours at 37° C. and 10% CO2 in a humid incubator. As control, only 50 μl of DMEM were added to cells. The cells were then centrifuged off for 5 minutes at 1300 rpm, and the supernatant medium was discarded carefully. The cell pellets were then detached by brief vortexing of the entire plate at a low level, resuspended with 100 μl/well of 5% FCS-PBS and centrifuged again for 5 minutes at 1300 rpm. The supernatant was then discarded again and the cell pellets were dissolved in 100 μl/well of propidium iodide staining solution (25 pg/ml). The cell suspension was then transferred to 5 ml Falcon® round-bottomed test tubes, which had previously been filled with 300 μl of 5% FCS-PBS, and then analysed using a BD FACSCalibur™System continuous-flow cytometer.

Compound: Oc1ccccc1-c1ccccc1 [2-HBP]
- relative increase in the load, amount doubled ([1]; 0.05 mM + same concentration of the same catalyst): increases
- relative increase in the load ([1]; 0.05 mM catalyst + 1% DMSO, 40 minutes): about 10%

Compound: COc1ccc2c(c1)OCC2=NO [#3651, 6-methoxybenzofuran-3(2H)-one-oxime]
- catalytic activity on HLA-DR1, dose-activity curves of T-cell stimulation [2]: weaker but still exhibits higher activity than pCP

Compound: CC(C)(O)C1CCC2(C)C(C1)C2(Cl)Cl (stereo not drawn) [#4230, 2-(7,7-dichloro-6-methyl-bicyclo[4.1.0]heptan-3-yl)-propan-2-ol]
- catalytic activity on HLA-DR1, dose-activity curves of T-cell stimulation [2]: corresponds approximately to that of adamantylethanol

- loading of cells with HA306-318, dose-activity curves compared with pCP [3]: substantially more active than pCP
- loading of cells with HA306-318, dose-activity curves compared with pCP [4]: substantially more active than pCP
- immune response of HLA-DR1-restricted T-cells ([2]; HA306-318 (EvHA/X5) or CO260-273 (hCII19.3) loaded onto 721.221 cells): markedly enhanced
Compound: NNC(=O)c1cc(C23CC4CC(CC(C4)C2)C3)n[nH]1 [AdCaPy, 3-(1-adamantyl)-5-carbohydrazide pyrazole]

Compound: Oc1cc(Cl)c(Cl)cc1O [DCC, 1,2-dichloro-4,5-dihydroxybenzene, reference compound]
- catalytic activity of phenol/aniline compounds, comparison of dose-activity curves ([1]; accelerated loading of soluble HLA-DR1 with HA306-318, compared with pCP): slightly increased activity
- load signal (threshold value of library analysis) [5]: 15,000 counted events

Compound: OCC(O)CNc1ccccc1 (stereo not drawn) [III 36, 3-N-phenylaminopropanediol]
- acceleration of the loading of MHC molecules with peptide ligands [6]: able to accelerate the loading of MHC molecules with peptide ligands
- activity compared with pCP [6]: markedly lower than that of pCP

Compound: CCCO [n-propanol]
- concentration required for use [7]: over 200 mM

Compound: Oc1ccccc1 [phenol]
- concentration required for use [7]: 30 mM

- catalytic activity in the ELISA [1]: similarly good results as AdaEtOH
Compound: dichlorophenylhydroxyiminoacetamide [DPHIA]
- toxicity [8]: even lower toxic effects than AdaEtOH or 4-HBP
